Holding throughout (type): physicochemical
Data set [1] is described as follows: Evaluation of hygroscopicity (storage 1 week; water content, powder X-ray diffraction). As for the experimental part:
The hygroscopicity and solid stability of a crystalline form of the mesylate of the carboxamide (Form A) (obtained in Example 5), a crystalline form of the mesylate of the carboxamide (Form C) (obtained in Example 7), a crystalline form of the acetic acid solvate of the mesylate of the carboxamide (Form I) (obtained in Example 10) and a crystalline form of the esylate of the carboxamide (Form β) (obtained in Example 12) were measured under the following conditions.
1. Storage Conditions for the Hygroscopicity Test (Period: 1 Week)
a-1. 25° C., relative humidity 75%
b-1. 25° C., relative humidity 93%
Analysis was carried out according to “X-Ray Powder Diffraction Method” described in Japanese Pharmacopoeia 14th Edition, General Tests (B-614 to 619) under the following measurement conditions. • Apparatus: RINT-2000 (manufacture by Rigaku Denki K. K.) • X-ray: CuKα ray • Monochrometer: curved crystal monochrometer • Goniometer: vertical goniometer • Counter: scintillation counter • Applied voltage: 40 kV • Charging current: 200 mA • Scan speed: 5°/min • Scan axis: 2θ/θ • Scan range; 2θ+5° to 40° • Divergent slit: 0.5° • Scattering slit: 0.5° • Receiving slit: 0.3 mm 5. Measurement of Water Content
Measurement was carried out according to the Water Determination as described in Japanese Pharmacopoeia 14th Edition, General Tests (B-318 to 331) using 6 to 10 mg of each crystal.

Data set [2] can be described thus: Evaluation of solid stability (storage 2 weeks; total impurity by HPLC, water content, powder X-ray diffraction). On the procedure:
2. Storage Conditions for the Solid Stability Test (Period: 2 Weeks) a-2. −20° C. (well closed) b-2. 25° C., light irradiation (1000 1×; shading with aluminum foil, well closed) c-2. 25° C., light irradiation (1000 1×; well closed) […]
e-2. 60° C. (well closed except the following case: slightly open in the case of a crystalline form of the acetic acid solvate of the mesylate (Form I))
3. Method for Measuring the Impurity Amount by HPLC
After storage, the sample solution was prepared by adding a mixed solvent of water and methanol (3:1) to each crystal at 0.1 mg/mL as final concentration.
Tests were conducted by the HPLC method for these sample solutions under the measurement conditions described below, and the eluted peak areas were measured to determine the total impurity amount by the relative area method (impurities of 0.05% or more were counted).
(Formula for Calculating Total Impurity Amount)
• Individual impurity amount (%)=(the peak area for the individual impurity)×100/{(the peak area for carboxamide)+(sum of the peak areas for impurities)} • Total impurity amount (%)=sum of individual impurity amounts (HPLC Measurement Conditions) • Column: Mightysil RP-18 GP (Kanto Kagaku; inner diameter 4.6 mm, column length 150 mm, particle size 3 μm) • Column temperature: constant temperature in vicinity of 40° C. • Flow rate: 1.0 mL/min • Mobile phase:
Solution B: CH3CN:H2O:HClO4=900:100:1 (v/v/v) • Gradient conditions […]
• Injection amount: 10 μL • Detection: ultraviolet absorbance photometer (wavelength: 252 nm) • Temperature of auto sampler: constant temperature in vicinity of 10° C. 4. Powder X-ray Diffraction […]
Measurement of Water Content

A short description of data set [3]: Test for measuring dissolution rate (rotating disk method). To be noted: 2nd fluid pH 6.8, 37° C., 50 rpm. As for the experimental part:
The dissolution rates of the following crystals were measured under the conditions described below by the rotating disk method (see, J. H. Woods et al., J. Pharm. Soc., 54, 1068 (1955)): a crystalline form of the free carboxamide (obtained in Preparation Example 1), a crystalline form of the hydrochloride of the carboxamide (obtained in Example 1), a crystalline form of the hydrobromide of the carboxamide (obtained in Example 2), a crystalline form of the methanesulfonate (hereunder, referred to as “mesylate”) of the carboxamide (Form A) (obtained in Example 5), a crystalline form of the mesylate of the carboxamide (Form C) (obtained in Example 7) and a crystalline form of the ethanesulfonate (hereunder, referred to as “esylate”) (Form β) (obtained in Example 12). The dissolution rates were calculated based on a range in which linearity was maintained in the relation between concentration and time at the initial stage of dissolution.
(Rotating Disk Method Conditions)
• Solvent: “2nd fluid” (pH 6.8, 500 mL) as described in Japanese Pharmacopoeia 14th Edition, General Tests (disintegration test) • Temperature: 37° C. • Disk rotation speed: 50 rpm • Area of powder contacting with solvent on disk: 1 cm^2 • Sampling amount: approx. 1 mL (HPLC Conditions) • Column: Cadenza CD-18 (Imtakt Corporation; inner diameter 4.6 mm, Column length 100 mm, particle size 3 μm) • Column temperature: 40° C. • Flow rate: 1.0 mL/min • Mobile phase:
Concentration of solution B: 20% • Injection amount: 100 μL • Detection: ultraviolet absorbance photometer (wavelength: 252 nm) • Temperature of auto sampler: 25° C. [Results]

[4] abbreviates: 25° C., relative humidity 75% or 93%, 1 week.
[5] abbreviates: a-1: 25° C., relative humidity 75%, 1 week.
Where [6] appears, read: b-1: 25° C., relative humidity 93%, 1 week.
Where [7] appears, read: a-2: −20° C. (well closed), 2 weeks.
The mark [8] stands for this setting: b-2: 25° C., light irradiation 1000 lx, shading with aluminum foil, well closed, 2 weeks.
The mark [9] stands for this setting: c-2: 25° C., light irradiation 1000 lx, well closed, 2 weeks.
Where [10] appears, read: d-2: 40° C., relative humidity 75%, 2 weeks.
[11] abbreviates: e-2: 60° C., 2 weeks (well closed; slightly open for Form I).
Where [12] appears, read: solid stability test, initial, HPLC relative area.

Structures are written as SMILES.

In the case of `COc1cc2nccc(Oc3ccc(NC(=O)NC4CC4)c(Cl)c3)c2cc1C(N)=O.CS(=O)(=O)O` [mesylate (Form C), Methanesulfonate of 4-(3-chloro-4-(cyclopropylaminocarbonyl)aminophenoxy)-7-methoxy-6-quinolinecarboxamide], in data set [1] (setting [4]), the “change in appearance and crystal transition” value was “Neither remarkable change in appearance nor crystal transition was observed”. The “change of water content” value in data set [1] (setting [4]) is on record as “did not change remarkably”. Moreover, in data set [1] (setting [4]), the hygroscopicity entry is listed as “not observed”. Also, the water content in data set [1] (setting [5]) came out at 0.6%; in data set [1] (setting [6]), 0.7%; in data set [1] (hygroscopicity test, initial) it was 0.7%; in data set [2] (setting [7]), 0.7%; in data set [2] (setting [8]) it was 0.8%; in data set [2] (setting [9]), 0.7%. For the same molecule, the water content in data set [2] (setting [10]) was 0.6%; in data set [2] (setting [11]) it was 0.5%; in data set [2] (solid stability test, initial), 0.7%. For the same molecule, the total impurity in data set [2] (setting [7]) is listed as 2.10%; in data set [2] (setting [8]) it was 2.09%; in data set [2] (setting [9]), 2.22%; in data set [2] (setting [10]) it was 2.06%; in data set [2] (setting [11]), 2.18%; in data set [2] (setting [12]), 2.11%. Moreover, in data set [2] (solid stability test, 2 weeks, all storage conditions), the “changes in water content and appearance, crystal transition” value was “neither remarkable changes in water content and appearance nor crystal transition was observed”. Also, the dissolution rate in data set [3] is recorded as 15.5 μg/min/cm^2.

`COc1cc2nccc(Oc3ccc(NC(=O)NC4CC4)c(Cl)c3)c2cc1C(N)=O.Cl` [hydrochloride, Hydrochloride of 4-(3-chloro-4-(cyclopropylaminocarbonyl)aminophenoxy)-7-methoxy-6-quinolinecarboxamide]: the dissolution rate in data set [3] was found to be 4.7 μg/min/cm^2.

As to `CC(=O)O.COc1cc2nccc(Oc3ccc(NC(=O)NC4CC4)c(Cl)c3)c2cc1C(N)=O.CS(=O)(=O)O` [Acetic Acid Solvate of the Methanesulfonate of 4-(3-chloro-4-(cyclopropylaminocarbonyl)aminophenoxy)-7-methoxy-6-quinolinecarboxamide], the “change in appearance and crystal transition” value in data set [1] (setting [4]) was “transition to a crystalline form of the mesylate (Form C)”. Moreover, the “change of water content” value in data set [1] (setting [4]) is “a decrease in water content was observed”. Further, the water content in data set [1] (setting [5]) amounted to 0.6%; in data set [1] (setting [6]) it was 0.8%; in data set [1] (hygroscopicity test, initial), 2.9%; in data set [2] (setting [7]), 3.1%; in data set [2] (setting [8]), 3.1%; in data set [2] (setting [9]) it was 2.9%. In addition, the water content in data set [2] (setting [10]) is listed as 0.9%; in data set [2] (setting [11]), 0.3%; in data set [2] (solid stability test, initial), 2.9%. Moreover, the crystal transition entry is “transition to a crystalline form of the mesylate (Form C)” in data set [2] (40° C. and relative humidity of 75%, 2 weeks); “transition to a crystalline form of the mesylate (Form B)” in data set [2] (60° C. in a slightly opened container, 2 weeks). Also, the total impurity in data set [2] (setting [7]) came to 0.67%; in data set [2] (setting [8]), 0.66%; in data set [2] (setting [9]), 0.87%; in data set [2] (setting [10]), 0.61%; in data set [2] (setting [11]), 0.84%; in data set [2] (setting [12]), 0.62%. The “crystal transition, changes in total impurity amount, water content and appearance” value in data set [2] (stored in a well closed container, 2 weeks) is “neither crystal transition nor remarkable changes in total impurity amount, water content and appearance were observed”.

The record behind these values is US7612208B2, “Crystalline form of the salt of 4-(3-chloro-4-(cyclopropylaminocarbonyl)aminophenoxy)-7-methoxy-6-quinolinecarboxamide or the solvate of the salt and a process for preparing the same” (Eisai R&D Management Co., Ltd., priority 2003, dated 2009).
